Source: article PMC9218685, “Legume Plant Peptides as Sources of Novel Antimicrobial Molecules Against Human Pathogens” (Frontiers in Molecular Biosciences, 2022)
≈ marks a conversion by molar mass, not a printed value. Entries after “also recorded” stand apart in the source; their conditions may differ. Where two headings read alike, the source gives them in different places. Ends that are not written are not given here. Peptide text beside a SMILES is read from it.

What was measured:
[1] = tested on: Lambda DNA/HindIII marker; assay: Gel retardation assay (DNA aggregation); assay type: binding; conditions: 100 ng DNA, 5 or 10 µM peptide in water, 30 min at room temperature, 1% agarose gel
Experimental: Interactions of peptides with DNA was visualized with gel retardation assay ([Hsu et al., 2005]). 100 ng Lambda DNA/HindIII marker (ThermoFisher Scientific) was incubated with 0, 5 or 10 µM synthetic NCRs or NCR derivatives in water for 30 min at room temperature and then loaded into 1% agarose gel. Electrophoresis of DNA fragments separated the mobile HindIII-digested DNA fragments while the aggregated DNA remained in the loading wells.
FIGURE 6 Aggregation of DNA by NCR peptides. Lambda HindIII digested DNA was incubated without (0) or with NCR peptides at 5 or 10 μM concentration.

A. baumannii = assay: Scanning electron microscopy of cell morphology; assay type: cell-based, Acinetobacter baumannii; conditions: 30 min treatment, peptide 1.6 or 3.125 µM as in Figure 3 legend
Experimental: A. baumannii and C. albicans were grown and treated the same way as for the membrane permeability assay. Cells were then fixed with 2.5% (v/v) glutaraldehyde in phosphate buffered saline (PBS, pH 7.4). 5 μl of the above bacterial and yeast suspensions were spotted on a silicon disk coated with 0.01% Poly-L-Lysine. The filters were washed twice with PBS and gradually dehydrated with ethanol series (30, 50, 70, 80%, and three times 100% ethanol, each for minimum 30 min). The samples were dried with a critical point dryer (K850: Quorum Technologies Ltd.), followed by 12 nm gold coating and observed under a JEOL JSM-7100F/LV scanning electron microscope.
FIGURE 3 Viability, membrane permeability and morphology of A. baumannii cells after NCR treatment (A–L) SYTO9/PI staining observed with confocal microscope, (M–X) Cell morphology observed with SEM. (A,M) untreated control, (B,N) CaNCR13, 3.125 µM, (C,O) CaNCR63, 3.125 µM, (D,P) CaNCR63_1-20, 3.125 µM, (E,Q) CaNCR63_15-34, 3.125 µM, (F,R) MsNCR443, 3.125 µM, (G,S) MsNCR463_16-35, 1.6 µM, (H,T) MsNCR463_17-30, 3.125 µM, (I,U) PsNCR349, 1.6 µM, (J,V) PsNCR349_26-50, 3.125 µM, (K,W) PsNCR349_31-50, 3.125 µM, (L,X) PsNCR352, 1.6 µM.

[2] = tested on: Acinetobacter baumannii (ATCC 17978); assay: microbe, parasite or virus in culture; assay type: cell-based; conditions: ATCC 17978, 3 h, pH 7.4; read-out: MBC, minimal bactericidal concentration against A. baumannii
Description: (§1) The following pathogenic bacterial strains were used: The Gram-positive Enterococcus faecalis (ATCC 29212), Staphylococcus aureus (HNCMO112011), Listeria monocytogenes (ATCC 19111) and the Gram-negative Pseudomonas aeruginosa (ATCC 27853), Escherichia coli (ATCC 8739), Salmonella enterica (ATCC 13076), Klebsiella pneumoniae (NCTC 13440), Acinetobacter baumannii (ATCC 17978) obtained from the ATCC (United States) and NCTC (National Collection of Type Cultures–England). For the antifungal experiment the Candida albicans W01 strain ([Ördögh et al., 2014]) was used. Antimicrobial activities of peptides against ∼10^7 log phase bacteria were tested in Potassium-Phosphate Buffer (PPB, pH 7.4) as described by [Jenei et al. (2020)] while anti-Candida assays were done according to [Szerencsés et al. (2021)]. The two-fold dilution series of peptides ranged from 25 μM to 0.125 μM, while that of the antibiotics ampicillin (Merck) and miconazole (Duchefa Biochemie) from […] to 0.1 μM. The lowest concentration of the antimicrobial agents, which completely eliminated viable bacteria or C. albicans were considered as the minimal bactericidal concentration (MBC) and minimal fungicidal concentration (MFC).
(§2) The minimal bactericidal concentrations (MBCs) were determined after 3 h of treatment of ∼10^7 log phase bacteria with 2-fold serial dilution of peptides from 25 µM to 0.8 µM. Only 25 of the 50 cationic M. truncatula peptides had activity at ≤25 µM (Supplementary Table S1). […] Three peptides were only active against two bacterial strains; NCR649 against L. monocytogenes and A. baumannii, NCR281 against L. monocytogenes and P. aeruginosa and NCR350 against A. baumannii and P. aeruginosa. […] None of the anionic NCR peptides affected the survival of the tested bacterial strains.

[3] = tested on: Candida albicans W01 strain; assay: microbe, parasite or virus in culture; assay type: cell-based; conditions: read-out: MFC, minimal fungicidal concentration against C. albicans
Description: as §1

[4] = tested on: Staphylococcus aureus (HNCMO112011); assay type: cell-based; conditions: HNCMO112011, 3 h
In short: (§3)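 Peptides were serially diluted two-fold from 25 µM to 0.8 µM and incubated 3 h with roughly 10^7 log-phase cells in potassium-phosphate buffer at pH 7.4; complete killing of viable bacteria defined the minimal bactericidal concentration.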

[5] = tested on: Escherichia coli (ATCC 8739); assay type: cell-based; conditions: ATCC 8739, 3 h
In short: as §3

[6] = tested on: Salmonella enterica (ATCC 13076); assay type: cell-based; conditions: ATCC 13076, 3 h
In short: as §3

[7] = tested on: Pseudomonas aeruginosa (ATCC 27853); assay type: cell-based; conditions: ATCC 27853, 3 h
In short: as §3

[8] = tested on: E. coli, S. enteritidis, P. aeruginosa, L. monocytogenes, S. aureus, E. faecalis, K. pneumoniae and A. baumannii; assay: Antimicrobial activity assay, spectrum over the eight tested pathogenic bacteria; assay type: cell-based; conditions: 3 h treatment of ~10^7 log phase bacteria, peptides 25 to 0.8 µM; active = MBC ≤25 µM
Description: as §1
We investigated the antimicrobial activity of 78 NCR peptides from M. truncatula and 12 NCRs from other IRLC legumes as well as their shorter derivatives against E. coli, S. enteritidis, P. aeruginosa, L. monocytogenes, S. aureus, E. faecalis, K. pneumoniae and A. baumannii (Supplementary Table S1). In the selection of the M. truncatula peptides, we considered their symbiotic expression levels but also their physicochemical properties. The antimicrobial activity of NCRs has so far been attributed to cationic peptides, with the exception of one anionic peptide. To investigate whether other anionic NCRs are antimicrobial, in addition to the cationic peptides, neutral and anionic NCRs were also included covering a broad range of peptides with different net charges (NC: from 7.8 to −10.2) and isoelectric points (pI: from 10.69 to 2.95). 50 peptides had positive net charge and pI > 7.0, while 28 peptides had negative net charge and pI < 7.0 (Supplementary Table S1A). Of the other legumes, only cationic NCR peptides were studied (Supplementary Table S1B).
as §2

[9] = tested on: Enterococcus faecalis (ATCC 29212); assay type: cell-based
In short: as §3

| Compound | Aggregation of HindIII-digested λ DNA (DNA retained in loading wells) [1] | Morphology of A. baumannii cells by SEM (A. baumannii) | MBC [2] [µM] | MFC ([3]; W01 strain) [µM] | MBC Staphylococcus aureus [4] [µM] | MBC Escherichia coli [5] [µM] | MBC Pseudomonas aeruginosa [7] [µM] | Antibacterial spectrum over the eight tested bacterial strains [8] | other results |
| --- | --- | --- | --- | --- | --- | --- | --- | --- | --- |
| CC[C@H](C)[C@H](NC(=O)[C@H](CCCCN)NC(=O)[C@H](CO)NC(=O)[C@H](CCCNC(=N)N)NC(=O)[C@@H]1CCCN1C(=O)[C@@H](N)CS)C(=O)N[C@@H](CCCCN)C(=O)N[C@@H](CC(=O)O)C(=O)N[C@@H](CS)C(=O)N[C@H](C(=O)N[C@@H](CCCCN)C(=O)NCC(=O)N[C@@H](Cc1ccc(O)cc1)C(=O)N[C@@H](CS)C(=O)N[C@@H](CCCNC(=N)N)C(=O)N[C@@H](CS)C(=O)N[C@H](C(=O)N[C@@H](CCCNC(=N)N)C(=O)N[C@@H](CCCCN)C(=O)N[C@@H](CCCCN)C(N)=O)C(C)C)C(C)C [CaNCR63_15-34] (H-CPRSKIKDCVKGYCRCVRKK-NH2; N-terminus assumed) | DNA remained in the wells | rough cell surface, lysis and flattening of the cells; also recorded: Filament-like structures |  |  |  |  |  |  |  |
| CC(C)[C@H](NC(=O)CNC(=O)[C@H](CCCNC(=N)N)NC(=O)[C@H](CCCCN)NC(=O)[C@@H]1CCCN1C(=O)[C@@H](N)CCCCN)C(=O)N[C@@H](CC(N)=O)C(=O)N[C@@H](Cc1ccccc1)C(=O)N[C@@H](CCCNC(=N)N)C(=O)N[C@@H](CS)C(=O)N[C@@H](CCCNC(=N)N)C(=O)N[C@@H](CCCCN)C(=O)NCC(=O)N[C@@H](CCCCN)C(N)=O [MsNCR463_17-30] (H-KPKRGVNFRCRKGK-NH2) |  |  | 3.125 (≈ 5.23 µg/mL) | 3.125 (≈ 5.23 µg/mL) |  |  |  |  |  |
| CC[C@H](C)[C@H](NC(=O)[C@H](CS)NC(=O)[C@H](CO)NC(=O)[C@H](CCCNC(=N)N)NC(=O)[C@H](CO)NC(=O)[C@H](Cc1ccccc1)NC(=O)[C@@H]1CCCN1C(=O)[C@H](CC(C)C)NC(=O)[C@H](Cc1ccc(O)cc1)NC(=O)[C@H](C)N)C(=O)N[C@@H](CO)C(=O)N[C@@H](CC(=O)O)C(=O)N[C@@H](CCCCN)C(=O)N[C@@H](CC(=O)O)C(=O)N[C@@H](CS)C(=O)N1CCC[C@H]1C(=O)N[C@@H](CCC(N)=O)C(=O)N[C@H](C(=O)N[C@@H](CCCCN)C(=O)N[C@@H](CC(N)=O)C(=O)N[C@@H](Cc1ccccc1)C(=O)N[C@@H](CO)C(=O)N[C@@H](C)C(=O)N[C@@H](CCCNC(=N)N)C(=O)N[C@@H](CS)C(=O)N[C@@H](CCCNC(=N)N)C(=O)N[C@@H](CCCCN)C(=O)NCC(=O)N[C@@H](Cc1ccc(O)cc1)C(=O)N[C@@H](CS)C(=O)N[C@@H](CCC(N)=O)C(=O)N[C@@H](Cc1ccccc1)C(=O)N[C@@H](CCCNC(=N)N)C(=O)N[C@H](C(=O)N[C@H](C(=O)N[C@@H](CCCNC(=N)N)C(=O)O)C(C)C)C(C)C)C(C)C [NCR471] (H-AYLPFSRSCISDKDCPQVKNFSARCRKGYCQFRVVR-OH; N-terminus assumed) |  |  |  |  | 12.5 (≈ 52.9 µg/mL) | 25 (≈ 106 µg/mL) | 3.125 (≈ 13.2 µg/mL) | effective against five or four strains | MBC Salmonella enterica [6]: 25 µM (≈ 106 µg/mL) |
| CSCC[C@H](NC(=O)[C@H](CC(N)=O)NC(=O)[C@H](Cc1ccccc1)NC(=O)[C@@H](NC(=O)[C@H](CC(C)C)NC(=O)[C@H](CCCCN)NC(=O)[C@H](CCCCN)NC(=O)[C@H](CCCCN)NC(=O)[C@H](CCCCN)NC(=O)[C@H](CCCCN)NC(=O)[C@H](CC(C)C)NC(=O)[C@H](CCCCN)NC(=O)[C@H](CCCCN)NC(=O)[C@H](CCCCN)NC(=O)[C@H](Cc1c[nH]cn1)NC(=O)[C@H](CCCCN)NC(=O)[C@H](CCC(N)=O)NC(=O)[C@@H](NC(=O)[C@H](CS)NC(=O)[C@H](Cc1ccc(O)cc1)NC(=O)[C@H](CS)NC(=O)[C@@H](NC(=O)[C@H](CCCCN)NC(=O)[C@H](Cc1c[nH]c2ccccc12)NC(=O)[C@@H](N)C(C)C)[C@@H](C)O)C(C)C)[C@@H](C)O)C(N)=O [PsNCR349_26-50] (H-VWKTCYCVQKHKKKLKKKKKLTFNM-NH2; N-terminus assumed) | DNA remained in the wells | Filament-like structures | 3.125 (≈ 9.81 µg/mL) |  |  |  |  |  | MFC ([3]; C. albicans W01, two-fold dilution series, lowest concentration completely eliminating viable C. albicans): 3.125 µM (≈ 9.81 µg/mL) |
| CSCC[C@H](NC(=O)[C@H](CC(N)=O)NC(=O)[C@H](Cc1ccccc1)NC(=O)[C@@H](NC(=O)[C@H](CC(C)C)NC(=O)[C@H](CCCCN)NC(=O)[C@H](CCCCN)NC(=O)[C@H](CCCCN)NC(=O)[C@H](CCCCN)NC(=O)[C@H](CCCCN)NC(=O)[C@H](CC(C)C)NC(=O)[C@H](CCCCN)NC(=O)[C@H](CCCCN)NC(=O)[C@H](CCCCN)NC(=O)[C@H](Cc1c[nH]cn1)NC(=O)[C@H](CCCCN)NC(=O)[C@H](CCC(N)=O)NC(=O)[C@@H](NC(=O)[C@H](CS)NC(=O)[C@@H](N)Cc1ccc(O)cc1)C(C)C)[C@@H](C)O)C(N)=O [PsNCR349_31-50] (H-YCVQKHKKKLKKKKKLTFNM-NH2) |  |  | 6.25 (≈ 15.8 µg/mL) | 1.6 (≈ 4.03 µg/mL) |  |  |  |  |  |
| FIDCETVADCPTHWAYIYVCEKNKCRYHFKSGRVRPDHQKNRHNRV-OH (cysteines drawn unpaired) [NCR520] |  |  |  |  | 25 | 25 | 3.125 | effective against five or four strains | Ability to kill E. faecalis ([9]; 3 h, ~10^7 log phase bacteria, peptides ≤25 µM): able to kill; MBC Enterococcus faecalis ([9]; ATCC 29212, 3 h): 25 µM |
